Marks after values point to notes of the source that are not given here.
Assays:
[1] = tested on: Plasmodium chabaudi; experiment: 4-day test, P. chabaudi (10^7 pRBC i.v.) in pantetheinase-deficient A/J mice, blood parasitemia days 4 and 5; assay type: in vivo; conditions: for Inhibition of parasitemia Day 4 / Inhibition of parasitemia Day 5: days 0-3
Protocol: A/J and C57BL/6 (B6) mice were purchased from the Jackson Laboratories (Bar Harbor, Me.) and were housed at McGill University according to the guidelines of the Canadian Council on Animal Care. An LDH virus-free isolate of P. chabaudi AS was maintained by weekly passage in A/J mice. Mice were infected intravenously into the tail vein (i.v.) with 10^6 or 10^7 pRBC suspended in pyrogen-free saline. Following infection, the percentage of pRBC was determined daily on thin blood smears stained with Dif-Quik™ (Dade Behring, Newark, Del.), as described (Fortin A, et al. (2001) Proc Natl Acad Sci USA 98: 10793-10798).
Cysteamine hydrochloride (Sigma, Burlington ON) was prepared in PBS. Chloroquine hydrochloride, artesunate and dihydroartemisinin were provided by Dafra Pharmaceuticals; chloroquine was prepared in PBS, artesunate and DHA were prepared in 5% sodium bicarbonate and diluted in water to appropriate concentrations. All solutions were prepared fresh daily, filter sterilized and injections were performed intra-peritoneally (i.p) or subcutaneously (s.c.) for 4 days or according to treatment regimen. Mice were weighed prior to treatment to determine appropriate doses and injection volumes ranged from 100-400 μL per mouse. In the case of animals treated with two drugs, artemisinin derivatives were administered first (due to the short half life of cysteamine), followed by cysteamine 5-10 minutes later on alternate sides. Untreated control animals were injected with PBS alone.
Groups with normally distributed data points were compared using parametric unpaired t-tests, while groups with non-Gaussian distributions were compared using non-parametric Mann-Whitney tests. Survival differences were analyzed using the Log-Rank test. […] Standard error of percent inhibition was calculated from individual mice compared to the mean parasitemia level of the control group.
The effect of Cys on the potency and efficacy of the anti-malarial artemisinin derivatives was tested. […] Synergy (Tallarida R J (2001) J Pharmacol Exp Ther 298: 865-872) is defined as a total anti-malarial activity (reduction in blood parasitemia compared to untreated controls in a standard 4-day test) of the two compounds administered together being greater than the sum of the independent activities of the two compounds given alone. We tested combinations of Cys and either artesunate (ART) or dihydroartemisinin (DHA), the bioactive form of artemisinin. Pantetheinase-deficient mice were infected with P. chabaudi (10^7 pRBC, i.v.) and treated with Cys (170 mg/kg) and/or sub-optimal doses of ART (0.2 or 0.5 mg/kg) (FIG. 3A) or DHA (0.15 or 0.3 mg/kg) (FIG. 3B) from day 0-3 and parasitemia was monitored on days 4 and 5. […] Potentiation of the anti-malarial activity of ART (0.5 mg/kg) by Cys was also clearly evident in these C57BL/6 mice at both days 4 and 5 post-infection, with combined treatment causing a 65-71% reduction in parasitemia compared to PBS controls, greater than either compound tested alone (13-29%) (TABLE 1).
It was subsequently examined whether Cys potentiation of ART was dose dependent. Initially, Cys doses of 60, 100, 140 and 180 mg/kg were tested with a sub-optimal ART dose of 0.2 mg/kg. The drugs were administered from day 0-3 post infection, parasitemia was counted at day 4 and day 5 and the percent inhibition was calculated compared to PBS-treated controls (FIG. 4A). At 0.2 mg/kg, ART alone inhibits parasitemia by ˜20% (day 4) and 40% (day 5) while inhibition by Cys alone was partially dose dependent (varying between 10% and 25%). […] It was also assessed whether Cys could potentiate low doses of artesunate which, given alone, have no significant effect on parasitemia. In this experiment, Cys (170 mg/kg) was administered in combination, or not, with increasing doses of ART (0.05, 0.1, 0.2, 0.4 mg/kg) in the same 4-day experimental protocol.

[2] = tested on: Plasmodium berghei ANKA; experiment: Plasmodium berghei ANKA infection (cerebral malaria model) in C57BL/6J mice, parasitemia and survival; assay type: in vivo
Protocol: FIGS. 8A and 8B show the results of two independent experiments on the effect of cysteamine and artesunate combinations on the progression of Plasmodium berghei ANKA infection (parasitemia). Groups of 5 adult 18-20 g C57BL/6J males and females were infected intravenously with 1×10^6 erythrocytes parasitized with P. berghei ANKA at time “0”. Two hours later, mice were injected i.p with either Artemisinin alone or with Artemisinin/Cysteamine combinations (at the indicated concentrations in mg/kg body weight). In the case of the latter, Artemisinin was injected first in one quadrant, and cysteamine was injected second, 10-15 minutes later in another quadrant. The drug treatment was further repeated at days 1, 2 and 3 post-infection to emulate the standard 4-day test used in anti-malarial drug discovery. Starting at day 5, blood was collected, thin blood smears were prepared, and parasitemia was determined (400 erythrocytes counted, expressed as percentage parasitized erythrocytes). Error bars show standard deviations on the mean; and
FIGS. 9A and 9B show the results of two independent experiments on the effect of cysteamine and artesunate combinations on the survival of Plasmodium berghei ANKA-infected mice. Infection and drug administration were performed as described above for FIGS. 8A and 8B. Animals were monitored for the appearance and severity of cerebral symptoms (CM phase, shown as rectangle in graph), and moribund animals were euthanized, and time of death was recorded.
Intravenous infection with Plasmodium berghei ANKA is an accepted mouse model of cerebral malaria (CM) (Hunt, N. H. et al. 2006, Int. J. Parasitol. 36: 569-582). The infection causes the following pathology. First, there is appearance of blood parasitemia, starting at days 3 or 4, which can go up to 10% by day 7-8. Starting at day 5-6, there is emergence of cerebral symptoms caused by permeability of the blood brain barrier, concomitant to trapping of parasitized red cells in the microvasculature and acute pathological host inflammatory response in situ. This cerebral phase quickly progresses from tremors, to paralysis, to coma, and is uniformly lethal in mice by days 8-10. In this model, progress of infection and possibly drug effects may be monitored by a) appearance and intensity of blood parasitemia (between days 5-8), b) appearance of cerebral symptoms, and c) lethality.

[3] = A/J mice, DHA 0.15 mg/kg + cysteamine 170 mg/kg i.p.
[4] = A/J mice, DHA 0.3 mg/kg + cysteamine 170 mg/kg i.p.

Row | Structure (SMILES) | effect of addition of Cys on inhibition of parasitemia versus additive effect of the two compounds ([1]; A/J mice, Cys 170 mg/kg added to ART (0.2 or 0.5 mg/kg) or DHA (0.15 or 0.3 mg/kg)) | Inhibition of parasitemia Day 4 [1, 3] | Inhibition of parasitemia Day 5 [1, 3] | Inhibition of parasitemia Day 4 ([1]; A/J mice, DHA 0.15 mg/kg alone) | Inhibition of parasitemia Day 5 ([1]; A/J mice, DHA 0.15 mg/kg alone) | Inhibition of parasitemia Day 4 [1, 4] | Inhibition of parasitemia Day 5 [1, 4] | Inhibition of parasitemia Day 4 ([1]; A/J mice, DHA 0.3 mg/kg alone) | Inhibition of parasitemia Day 5 ([1]; A/J mice, DHA 0.3 mg/kg alone) | symptoms of disease (ruffled fur, lethargy) ([1]; mice receiving both Cys and ART/DHA, compared to PBS or only one compound) | rise and absolute levels of parasitemia (days 6-8) versus Artemisinin alone ([2]; Artemisinin 5 or 10 mg/kg + Cysteamine i.p., days 0-3) | prolongation of survival over Artemisinin alone ([2]; cysteamine added to Artemisinin) | effect of adding cysteamine compared with doubling the dose of Artemisinin ([2]; two independent experiments (FIG. 8A, 8B))
1 | C[C@@H]1CCC2[C@@H](C)[C@H](O)O[C@@H]3O[C@]4(C)CCC1C23OO4 (stereo partly shown) [DHA, dihydroartemisinin] | synergistic effect | 56* % PBS control | 46* % PBS control | 22 % PBS control | 13 % PBS control | 80 % PBS control | 71* % PBS control | 50 % PBS control | 40 % PBS control | fewer symptoms of disease |  |  | 
2 | C[C@@H]1CCC2[C@@H](C)C(=O)O[C@@H]3O[C@]4(C)CCC1C23OO4 (stereo partly shown) [Artemisinin] |  |  |  |  |  |  |  |  |  |  | delay in the rise of parasitemia | 1 to 2 days | comparable (FIG. 8A) or superior (FIG. 8B)

From US9278086B2, “Combination therapy and uses thereof for treatment and prevention of parasitic infection and disease” (The Royal Institution for the Advancement of …, priority 2010, dated 2016)
